Test results reported in patent publication US6706699B2, “Quinolines and uses thereof” (Ariad Pharmaceuticals, Inc., priority 2001, dated 2004).

Assay: Hydroxyapatite assay (hydroxyapatite adsorption chromatography, bone-targeting potential)
Assay type: physicochemical
Details: corrected retention K=(retention time−void time)/void on TSK-Gel HA 1000 column; linear gradient 10 mM to 500 mM sodium phosphate, 0.15 N NaCl, pH 6.8
Experimental: Hydroxyapatite is the principal mineral component of bone. Hydroxyapatite adsorption chromatography is used as an assay to evaluate the bone-targeting potential of both individual bone-targeting moieties (“monomers”) and of pharmaceuticals incorporating bone-targeting groups.
Method: The rentention time of a test compound is measured using a linear gradient from 10 mM sodium phosphate, 0.15 N NaCl, pH=6.8 to 500 mM sodium phosphate, 0.15 N NaCl, […] on a TSK-Gel HA 1000 high pressure liquid chromatography column (7.5 mm×75 mm). […] This K value is corrected using two reference compounds to correct from inter-column and inter-system variation to obtain a K′ value.
Reference Compounds: K′ values were determined for known bone targeted compounds, the bisphosphonate, alendronate and tetracycline.

- K′ value: 3.7
SMILES: NCCCC(O)(P(=O)(O)O)P(=O)(O)O [Alendronate, alendronate]
